Laboratory results taken from patent US11708348B2, “Protease inhibitors for treatment of coronavirus infections” (The Scripps Research Institute, priority 2021, dated 2023).
Structures can show the parent of a compound that is named as a salt. Where two headings read alike, the source gives them in different places.

System: SARS-CoV-2 strain USA-WA1/2020
Assay: microbe, parasite or virus in culture
Format: cell-based
Conditions: Severe acute respiratory syndrome coronavirus 2, HeLa-ACE2, 24 h, read-out: EC50, uM (Hela)
[1] = HeLa-ACE2 cells, SARS-CoV-2 infection, 24 h
[2] = HeLa-ACE2 cells, SARS-CoV-2 infection, 24 h, class symbols
[3] = HeLa-ACE2 cells, SARS-CoV-2 infection, 24 h, given as bound

Compound	EC50 [1]	further results
O=C(NC1CC1)C(=O)N1C[C@@H]2CCC[C@@H]2[C@H]1C(=O)N[C@@H](C[C@@H]1CCNC1=O)C(=O)COC(F)(F)F [Compound 497, (1S,3aR,6aS)-2-(2-(cyclopropylamino)-2-oxoacetyl)-N-((S) -3-oxo-1-((S)-2-oxopyrrolidin-3-yl)-4-(trifluoromethoxy)butan-2-yl)octahydrocyclo-penta[c]pyrrole-1-carboxamide]	0.05 to 0.2 µM	
CC(C)(O)C(=O)N1C[C@H]2[C@@H]([C@H]1C(=O)N[C@@H](C[C@@H]1CCNC1=O)C(=O)COC(F)(F)F)C2(C)C [Compound 351, (1R,2S,5S)-3-(2-hydroxy-2-methylpropanoyl)-6,6-dimethyl-N-((S)-3-oxo-1-((S)-2-oxopyrrolidin-3-yl)-4-(trifluoromethoxy)butan-2-yl)-3-azabicyclo-[3.1.0]hexane-2-carboxamide]		EC50 [2]: 0.05 to 0.2 µM
CC(C)C(F)(F)CC(=O)N1CC2(CC2)C[C@H]1C(=O)N[C@@H](C[C@@H]1CCNC1=O)C(=O)COC(F)(F)F [Compound 712, (S)-5-(3,3-difluoro-4-methylpentanoyl)-N-((S)-3-oxo-1-((S)-2-oxopyrrolidin-3-yl)-4-(trifluoromethoxy)butan-2-yl)-5-azaspiro[2.4]heptane-6-carboxamide]	< 0.05 µM	
O=C(NC1CC1)C(=O)N1CC2(CC2)C[C@H]1C(=O)N[C@@H](C[C@@H]1CCNC1=O)C(=O)COC(F)(F)F [Compound 746, (S)-5-(2-(cyclopropylamino)-2-oxoacetyl)-N-((S)-3-oxo-1-((S)-2-oxopyrrolidin-3-yl)-4-(trifluoromethoxy)butan-2-yl)-5-azaspiro[2.4]heptane-6-carboxamide]	0.05 to 0.2 µM	
CC(C)(C)C[C@@H](O)C(=O)N1CC2(CC2)C[C@H]1C(=O)N[C@@H](C[C@@H]1CCNC1=O)C(=O)COC(F)(F)F [Compound 658, (S)-5-((R)-2-hydroxy-4,4-dimethylpentanoyl)-N-((S)-3-oxo-1-((S)-2-oxopyrrolidin-3-yl)-4-(trifluoromethoxy)butan-2-yl)-5-azaspiro[2.4]heptane-6-carboxamide]	< 0.05 µM	
CC(C)CCC(=O)N1CC2(CC2)C[C@H]1C(=O)N[C@@H](C[C@@H]1CCNC1=O)C(=O)COC(F)(F)F [Compound 429, (S)-5-(4-methylpentanoyl)-N—((S)-3-oxo-1-((S)-2-oxopyrrolidin-3-yl)-4-(trifluoromethoxy)butan-2-yl)-5-azaspiro[2.4]heptane-6-carboxamide]	< 0.05 µM	
CC1(C)[C@@H]2[C@@H](C(=O)N[C@@H](C[C@@H]3CCNC3=O)C(=O)COC(F)(F)F)N(C(=O)c3csc(C(F)(F)F)n3)C[C@@H]21 [Compound 468, (1R,2S,5S)-6,6-dimethyl-N-((S)-3-oxo-1-((S)-2-oxopyrrolidin-3-yl)-4-(trifluoromethoxy)butan-2-yl)-3-(2-(trifluoromethyl)-thiazole-4-carbonyl)-3-azabicyclo[3.1.0]-hexane-2-carboxamide]	0.05 to 0.2 µM	
COc1cccc([C@@H](O)C(=O)N2C[C@H]3[C@@H]([C@H]2C(=O)N[C@@H](C[C@@H]2CCNC2=O)C(=O)COC(F)(F)F)C3(C)C)c1F [Compound 741, (1R,2S,5S)-3-((R)-2-(2-fluoro-3-methoxyphenyl)-2-hydroxyacetyl)-6,6-dimethyl-N-((S)-3-oxo-1-((S)-2-oxopyrrolidin-3-yl)-4-(trifluoromethoxy)butan-2-yl)-3-azabicyclo[3.1.0]hexane-2-carboxamide]	< 0.05 µM	
O=C(Nc1ccccc1F)C(=O)N[C@@H](Cc1cccc(F)c1)C(=O)N[C@@H](C[C@@H]1CCNC1=O)C(=O)COC(F)(F)F [Compound 243, N1-(2-fluorophenyl)-N2-((S)-3-(3-fluorophenyl)-1-oxo-1-(((S)-3-oxo-1-((S)-2-oxopyrrolidin-3-yl)-4-(trifluoromethoxy)butan-2-yl)amino)propan-2-yl)oxalamide]		EC50 [2]: < 0.05 µM
O=C(Nc1ccccc1F)C(=O)N1[C@H](C(=O)N[C@@H](C[C@@H]2CCNC2=O)C(=O)COC(F)(F)F)C[C@@H]2C[C@@H]21 [Compound 539, (1S,3S,5S)-2-(2-((2-fluorophenyl)amino)-2-oxoacetyl)-N-((S)-3-oxo-1-((S)-2-oxopyrrolidin-3-yl)-4-(trifluoromethoxy)butan-2-yl)-2-azabicyclo-[3.1.0]hexane-3-carboxamide]	0.05 to 0.2 µM	
O=C1NCC[C@H]1C[C@H](NC(=O)[C@@H]1CC2(CC2)CN1C(=O)C1CCC(F)(F)C1)C(=O)COC(F)(F)F (stereo partly drawn) [Compound 720, (6S)-5-(3,3-difluorocyclopentane-1-carbonyl)-N-((S)-3-oxo-1-((S)-2-oxopyrrolidin-3-yl)-4-(trifluoromethoxy)butan-2-yl)-5-azaspiro[2.4]heptane-6-carboxamide]	< 0.05 µM	
Cn1cncc1C(O)C(=O)N1CC2(CC2)C[C@H]1C(=O)N[C@@H](C[C@@H]1CCNC1=O)C(=O)COC(F)(F)F (stereo partly drawn) [Compound 383, (6S)-5-(2-hydroxy-2-(1-methyl-1H-imidazol-5-yl)acetyl)-N-((S)-3-oxo-1-((S)-2-oxopyrrolidin-3-yl)-4-(trifluoromethoxy)butan-2-yl)-5-azaspiro[2.4]heptane-6-carboxamide]		EC50 (HeLa-ACE2 cells, SARS-CoV-2 infection, 24 h, bound printed in cell): > 1 µM
CC(C)C[C@H](NC(=O)C(=O)Nc1ccccc1F)C(=O)N[C@@H](C[C@@H]1CCNC1=O)C(=O)COc1c(F)cc(F)cc1F [Compound 131, N1-(2-fluorophenyl)-N2-((S)-4-methyl-1-oxo-1-(((S)-3-oxo-1-((S)-2-oxopyrrolidin-3-yl)-4-(2,4,6-trifluorophenoxy)butan-2-yl)amino)pentan-2-yl)oxalamide]		EC50 [2]: 0.2 to 0.5 µM
O=C1NCC[C@H]1C[C@H](NC(=O)[C@@H]1CC2(CC2)CN1C(=O)[C@H](CO)c1ccccc1)C(=O)COC(F)(F)F [Compound 595, (S)-5-((S)-3-hydroxy-2-phenylpropanoyl)-N-((S)-3-oxo-1-((S)-2-oxopyrrolidin-3-yl)-4-(trifluoromethoxy)butan-2-yl)-5-azaspiro[2.4]-heptane-6-carboxamide]	0.05 to 0.2 µM	
CO[C@@H]1C[C@@H](C(=O)N[C@@H](C[C@@H]2CCNC2=O)C(=O)COC(F)(F)F)N(C(=O)C(=O)NC(C)(C)C)C1 [Compound 537, (2S,4R)-1-(2-(tert-butylamino)-2-oxoacetyl)-4-methoxy-N-((S)-3-oxo-1-((S)-2-oxopyrrolidin-3-yl)-4-(trifluoromethoxy)butan-2-yl)pyrrolidine-2-carboxamide]		EC50 [3]: > 1 µM
COc1cccc(NC(=O)C(=O)N[C@@H](CC(C)C)C(=O)N[C@@H](C[C@@H]2CCNC2=O)C(=O)COc2c(F)c(F)cc(F)c2F)c1 [Compound 120, N1-(3-methoxyphenyl)-N2-((S)-4-methyl-1-oxo-1-(((S)-3-oxo-1-((S)-2-oxopyrrolidin-3-yl)-4-(2,3,5,6-tetrafluorophenoxy)butan-2-yl)amino)pentan-2-yl)oxalamide]		EC50 [2]: < 0.05 µM
CC1(C)[C@@H]2[C@@H](C(=O)N[C@@H](C[C@@H]3CCNC3=O)C(=O)COC(F)(F)F)N(C(=O)C(CN3CCC(F)(F)CC3)NC(=O)C(F)(F)F)C[C@@H]21 (stereo partly drawn) [Compound 442, (1R,2S, 5S)-3-(3-(4,4-difluoropiperidin-1-yl)-2-(2,2,2-trifluoroacetamido)-propanoyl)-6,6-dimethyl-N-((S)-3-oxo-1-((S)-2-oxopyrrolidin-3-yl)-4-(trifluoromethoxy)butan-2-yl)-3-azabicyclo[3.1.0]-hexane-2-carboxamide]		EC50: 0.2 to 0.5 µM
CC(C)(C)NC(=O)C(=O)N1CC2(COC2)C[C@@H]1C(=O)N[C@@H](C[C@@H]1CCNC1=O)C(=O)COC(F)(F)F [Compound 514, (R)-6-(2-(tert-butylamino)-2-oxoacetyl)-N-((S)-3-oxo-1-((S)-2-oxopyrrolidin-3-yl)-4-(trifluoromethoxy)butan-2-yl)-2-oxa-6-azaspiro[3.4]octane-7-carboxamide]	0.5 to 1 µM	
CCC(=O)O[C@H](CC(C)C)C(=O)N1CC2(CC2)C[C@H]1C(=O)N[C@@H](C[C@@H]1CCNC1=O)C(=O)COC(F)(F)F [Compound 626, (R)-4-methyl-1-oxo-1-((S)-6-(((S)-3-oxo-l-((S)-2-oxopyrrolidin-3-yl)-4-(trifluoromethoxy)butan-2-yl)carbamoyl)-5-azaspiro[2.4]heptan-5-yl)pentan-2-yl propionate]	< 0.05 µM	
CC(C)C[C@H](NC(=O)C(=O)Nc1ccccc1F)C(=O)N[C@@H](Cc1cnc[nH]1)C(=O)COc1c(F)c(F)cc(F)c1F (single isomer, unassigned) [Compound 135, trifluoroacetate]		EC50: 0.5 to 1 µM
CC(=O)N[C@H](C(=O)N1CC2(CC2)C[C@H]1C(=O)N[C@@H](C[C@@H]1CCNC1=O)C(=O)COC(F)(F)F)C(C)(C)C [Compound 436, (S)-5-((S)-2-acetamido-3,3-dimethylbutanoyl)-N-((S)-3-oxo-1-((S)-2-oxopyrrolidin-3-yl)-4-(trifluoromethoxy)butan-2-yl)-5-azaspiro[2.4]heptane-6-carboxamide]		EC50 [3]: > 1 µM
C=CC[C@@H](O)C(=O)N1CC2(CC2)C[C@H]1C(=O)N[C@@H](C[C@@H]1CCNC1=O)C(=O)COC(F)(F)F [Compound 662, (S)-5-((R)-2-hydroxypent-4-enoyl)-N-((S)-3-oxo-1-((S)-2-oxopyrrolidin-3-yl)-4-(trifluoromethoxy)butan-2-yl)-5-azaspiro[2.4]heptane-6-carboxamide]	0.05 to 0.2 µM	
Cc1cc(F)ccc1NC(=O)C(=O)N[C@@H](CC(C)C)C(=O)N[C@@H](C[C@@H]1CCNC1=O)C(=O)COc1c(F)c(F)cc(F)c1F [Compound 74, N1-(4-fluoro-2-methylphenyl)-N2-((S)-4-methyl-1-oxo-1-(((S)-3-oxo-1-((S)-2-oxopyrrolidin-3-yl)-4-(2,3,5,6-tetrafluorophenoxy)butan-2-yl)amino)pentan-2-yl)oxalamide]		EC50 [2]: 0.2 to 0.5 µM
